Experiments:
TK [1] = biological target: T1, TK (Homo sapiens, UniProt P29401); assay: Cell-based TK inhibition in thiamine-depleted media, 96-well format; parameters: endogenous in cells; conditions: treated cells, 48 hours treatment
T1 sequence (P29401 1-623): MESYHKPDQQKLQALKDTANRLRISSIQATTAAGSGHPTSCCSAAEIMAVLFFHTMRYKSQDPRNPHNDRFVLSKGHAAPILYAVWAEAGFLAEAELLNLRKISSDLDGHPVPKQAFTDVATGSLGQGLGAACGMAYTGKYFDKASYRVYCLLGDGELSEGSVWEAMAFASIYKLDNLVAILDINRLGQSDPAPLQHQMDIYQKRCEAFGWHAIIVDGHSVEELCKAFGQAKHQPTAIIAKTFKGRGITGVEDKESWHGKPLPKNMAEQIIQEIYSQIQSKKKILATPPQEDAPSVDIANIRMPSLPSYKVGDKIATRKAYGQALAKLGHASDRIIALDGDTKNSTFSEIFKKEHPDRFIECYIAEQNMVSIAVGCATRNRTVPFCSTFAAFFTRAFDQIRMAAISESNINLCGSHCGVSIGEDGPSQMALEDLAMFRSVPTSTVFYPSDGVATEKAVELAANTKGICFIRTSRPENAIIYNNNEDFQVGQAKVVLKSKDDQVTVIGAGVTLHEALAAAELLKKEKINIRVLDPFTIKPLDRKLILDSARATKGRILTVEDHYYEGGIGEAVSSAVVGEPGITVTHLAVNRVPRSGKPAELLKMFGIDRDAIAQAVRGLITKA
Description: We determined the IC50 of compounds that inhibit the activity of the TPP utilizing enzymes TK, kGDH and PDH in a convenient 96-well format using an optimized version of the method described in the previous Examples.
The high thiamine levels in conventional cell culture media (e.g., DMEM (12 μM), RPMI (3 μM)) masks the inhibitory effect of such inhibitors. To measure the IC50 of such inhibitors, thus, a thiamine depleted DMEM, containing all the ingredients of normal DMEM except for thiamine (HyClone, custom order), was used. Thiamine-depleted media (TDM) is made up with thiamine-depleted DMEM, 10% FBS, which contains negligible amount of thiamine (estimated to be ˜3-5% nM) and 1% Penicillin-streptomycin.
Log-phase growing cells were trypsinized and resuspended in TDM. Optimization of the initial cell counts is recommended for each cell line to ensure that enzyme activity can be observed at the beginning and that healthy growth can continue. For cell lines that have a doubling time of approximately 24 hours and cellular transketolase levels high enough to be reliably detected with five thousand (5K) cells such as HCT116 and HT1080, 8K cells are recommended.
Media containing 8K cells (95 μl) were used to seed individual wells in a 96-well clear-bottom cell cultured treated sterile plate. […] Enzymatic inhibition was expressed as percent of control wells that were not treated with compounds. […]

TK [2] = biological target: T1, TK; assay: Thiamine competition and washout time course of TK inhibition in cells; assay type: cell-based; parameters: endogenous in cells; host or cells: HCT116; conditions: HCT116 cells, TDM, thiamine 0-12 μM, 48 hours; 12 μM thiamine overcomes inhibition
Description: HCT116 cells were plated in clear-bottomed 96-well culture plates, at a density of 8000 cells/well in TDM. The following morning, N3PT and different amounts of thiamine (12 μM, 2.4 μM, 0.48 μM, 0.096 μM, 0.0192 μM, 0 μM) were added to the cells. Forty-eight hours later, plates were inverted to remove media and blotted on paper towels to remove residual media. Plates were immediately assayed for enzymatic TK activity. 80 μl of lysis buffer was added to each well, and the cells incubated at RT for 10 min to allow cell lysis. After lysis, 20 μl of the aforementioned 5× reaction mix was added to each well to initiate the reaction. Reactions were monitored as described above.
Cells were plated in TDM media 24 hours earlier, different concentration of N3PT and 100 nM thiamine were added to the cells and treated for 48 hour to allow N3PT to exert its inhibitory effect (day 2; d2). The media was then changed to contain only 100 nM thiamine and one plate was assayed every day for the next five days (d3 to d7).

IC50 (TK [1]): 0.02 µM
SMILES: Cc1ccc(C[n+]2csc(CCO)c2C)c(N)n1 [N3PT, 3-[(2-amino-6-methyl-3-pyridinyl)methyl]-5-(2-hydroxyethyl)-4-methyl thiazolium]
Inhibition of TK in the presence of increased concentrations of thiamine (TK [2]): reduced by thiamine in a concentration dependent manner
